Assay results reported in PubChem BioAssay AID463226 (The Scripps Research Institute Molecular Screening Center, 2010).
Calls of active or inactive are those of the source. How the calls were made is not given here.

Biological target: Serine/threonine-protein phosphatase PP1-beta catalytic subunit (Homo sapiens) (UniProt P62140)
Assay: PubChem AID 463226
Conditions: purified PP1, 33P-phosphohistone dephosphorylation, scintillation

Serine/threonine-protein phosphatase PP1-beta catalytic subunit (Homo sapiens), sequence (P62140 whole entry, looked up): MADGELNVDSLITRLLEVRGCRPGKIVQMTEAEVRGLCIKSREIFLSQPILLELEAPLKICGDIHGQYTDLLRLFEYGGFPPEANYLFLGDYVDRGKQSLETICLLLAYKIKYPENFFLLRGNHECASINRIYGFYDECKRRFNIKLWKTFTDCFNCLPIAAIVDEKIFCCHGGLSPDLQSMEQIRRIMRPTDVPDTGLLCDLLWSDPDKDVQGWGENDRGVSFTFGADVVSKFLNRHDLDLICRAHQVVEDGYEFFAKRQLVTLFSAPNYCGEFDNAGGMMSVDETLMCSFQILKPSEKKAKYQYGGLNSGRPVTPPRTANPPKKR

Compound | IC50
O=C(O)C1C2CCC(O2)C1C(=O)NC1CCCCC1 (configuration not stated) | 23.2 µM
O=C(O)c1n[nH]nc1-c1ccccc1 | inactive
